Laboratory results as given in US12280088B2, “Dry powder formulation of caveolin-1 peptides and methods of use thereof” (BOARD OF REGENTS, THE UNIVERSITY OF TEXAS SYSTEM, priority 2018, dated 2025).
Values after ≈ are worked out from the molar mass of the structure shown. Peptide text beside a SMILES is read from it.

How the values were obtained:
[1] = Stability study of milled CSP7 (ammonium counterion): geometric particle size distribution (Sympatec HELOS, RODOS); type: physicochemical; settings: not stored (Unprocessed / Initial)
Procedure: (§1) Stability study for milled CSP7 (ammonium counterion) from Lot #UTA181028. The stability of milled CSP7 powder was investigated under different storage conditions for a period of up to 6 months. Milled CSP7 peptide is packaged as two forms, bulk milled powder and encapsulated milled powder. For storage as bulk milled powder, 0.21-0.24 g peptide is filled in 20 mL scintillation vials (Kimble®, DWK Life Sciences, Millville, N.J., US) and stored within a heat-sealed foil pouch (Impak Corp, Los Angeles, Calif., US) containing two bags of 1 g silica gel desiccant (Tyvek®, Sorbco Packaging LLC, Belen, N. Mex., US) in each pouch. Milled peptide powder is also encapsulated in size 3 HPMC capsules (Capsugel, Morristown, N.J., US) in a weight of about 11±5% mg, and 22-26 capsules are then packaged in HDPE bottles (Drug Plastic, Boyertown, Pa., US), followed by sealing the HDPE bottle within a foil pouch (without desiccant). Packages are stored in stability chambers at the following storage conditions: −20° C., 25° C./60% RH, and 40° C./75% RH. Samples are removed for testing at 1, 3, and 6 months (Table 38). For tests except the aerodynamic particle size distribution, encapsulated powder was removed from the capsule and mixed in a glass vial by rotating the vial.
Geometric particle size distribution. GPSD of CSP7 powder was analyzed before and after milling using a Sympatec HELOS laser diffraction instrument (Sympatec GmbH, Germany) equipped with RODOS dispersion. Measurements are taken every 10 ms following powder dispersion at 3 bar. Measurements that are between 5 and 25% optical density were averaged to determine particle size distribution. The particle sizes by volume are reported at percentiles of 10, 50, and 90 (e.g., Dv 10, Dv 50, and Dv 90), respectively, as well as the percentages of particles falling into 1-5 μm size range. The results are shown in 41.

[2] = Stability study of milled CSP7 (ammonium counterion): aerodynamic particle size distribution by NGI; type: physicochemical; settings: Lot#UTA181028; Unprocessed
Procedure: Determination of aerodynamic particle size distribution of milled CSP7 bulk powder. Around 3.5 mg of milled CSP7 powder was manually filled into size 3 HPMC capsules (Capsugel, Peapack, N.J.). CSP7 capsules were then aerosolized using a RS01 Monodose Dry Powder Inhaler (high resistance) and aerodynamic particle size distribution was measured by a Next Generation Impactor (NGI, MSP Corp., Shoreview, Minn.). Aerosols were produced over 4 s at an air flow rate of 60 L/min for the inhaler to achieve an inhalation volume of 4 L and 4 kPa pressure drop across the device. Before each run, NGI collection surfaces were coated with 5% (v/v) polysorbate 20 in methanol. One capsule was shot for each run and each sample was ran in triplicate repetitions (three capsules). After aerosolization, all collection surfaces were rinsed with specific volumes of 20 mM Tris buffer (pH 10.3) to collect the drug. Powders deposited in the capsule, device, adaptor, throat, pre-separator, and stages 1-MOC were extracted respectively.
For each test, delivered dose is defined as the mass of CSP7 that entered the NGI. Geometric standard deviation (GSD), mass median aerodynamic diameter (MMAD) and fine particle fraction % (FPF %) are calculated and analyzed with Copley Inhaler Testing Data Analysis Software (CITDAS, Copley Scientific, Nottingham UK), based on the doses deposited on stages 1-MOC of NGI. The FPF is defined as the mass fraction of particles less than 5.0 μm with the delivered dose.
as §1
Aerodynamic particle size distribution: The aerodynamic particle size distribution was evaluated by performing NGI as described in Example 1, except that the powder weight in the tested capsule was 11±5% mg and pre-separator was removed in the assembly of the NGI in stability study.

physchem = type: physicochemical
Procedure: Solubility of neat (i.e., not milled) CSP7 ammonium counterion form (Table 35) was performed by adding excess amount of peptide powder into 3 mL different pH buffers (Table 36) and mixing on orbital shaker at 100 rpm for 24 hours at room temperature. The solubility and freeze-thaw samples were filtered through a 0.45 μm membrane prior to being assayed by performing High Performance Liquid Chromatography (HPLC, Thermo Fisher Scientific, Fair Lawn, N.J.). Briefly, samples were analyzed using Dionex 3000 HPLC system equipped with a Waters® reversed phase C18 column 2.5 μm, 150 mm×4.60 mm. The HPLC column was heated to 60° C. for testing, and the peptide was detected at a wavelength of 215 nm and a 1 mL/min flow rate. The two mobile phases were A (0.1% acetic acid in water) and B (0.1% acetic acid in acetonitrile). The injection volume was 20 μL and the standard curve was plotted from 0.01-1 mg/ml.

[3] = pH-solubility of polypeptide variants; type: physicochemical
Procedure: Solubility study of variants was performed by adding variants powders into solvent in concentration of 5 mg/ml and then vortexing for 3 min. Observe the appearance of solutions in 5 min. Add more powder (˜5 mg/ml each time) and repeat vortex and observe until precipitation or gelation occurs.

[4] = test system: Bleomycin Induced Lung Fibrosis; assay: Bleomycin induced lung fibrosis in mice, Ashcroft score; type: in vivo; settings: dry powder inhalation after bleomycin induction, vs bleomycin only
Procedure: Preparation and lysis of lung tissues. Female mice, ages 6-8 weeks are ordered from Jackson Laboratories, stock: 000664 C57BL/6J are cared for and housed according to IACUC guidelines. The following week, mice are weighed, anesthetized with an IP injection of 80 mg/kg Ketamine & 6 mg/kg Xylazine (approx. 115 ul/mouse) and subjected to a single intratracheal installation of bleomycin. Briefly, a 26G plastic catheter is inserted into the trachea and mice receive, via pipette, 2×20 ul installations (spaced 30 s apart to allow clearance from the airways) of 0.8 U/kg bleomycin (Biotang, Cat #RB003). Controls receive the same volume of saline only. Weight is tracked (approximately 10% weight loss occurs in injured animals) and animals are subjected to a dry powder inhalation protocol (CH technologies) daily for one week. […] Images were captured with Aperio AT2 high volume, digital whole slide scanner and lungs were scored for fibrotic injury according to modified Ashcroft scoring protocol (Hubner et al., 2008, incorporated herein by reference). […] The colormetric assay was read on a microplate reader (FilterMax F5, Molecular Devices, 580 nm). […]
Lung tissues were homogenized and collagen content was analyzed using the Quickzyme collagen assay (FIG. 30). […]

[5] = Geometric particle size by Sympatec laser diffraction, wet dispersion; type: physicochemical
Procedure: The particle sizes were next determined by Sympatec laser diffraction by a wet dispersion method. CSP7 was dissolved in ethanol +0.05% Tween 80 as dispersion medium and sonicated 10 min.

CC(C)[C@H](NC(=O)[C@@H](NC(=O)[C@H](Cc1ccccc1)NC(=O)[C@@H](NC(=O)[C@@H](NC(=O)[C@@H](N)Cc1ccccc1)[C@@H](C)O)[C@@H](C)O)[C@@H](C)O)C(=O)N[C@H](C(=O)O)[C@@H](C)O [CSP7 (ammonium counterion), FTTFTVT] (H-FTTFTVT-OH; N-terminus and C-terminus assumed)
% 1-5 μm [1]: 47.0 ± 0.9% | Dv 10 [1]: 1.2 ± 0 μm | Dv 50 [1]: 4.5 ± 0.1 μm | Dv 90 [1]: 15.7 ± 0.8 μm | EF % [2]: 92.8% | FPD [2]: 4.2 mg | FPF % [2]: 48.4% | GSD [2]: 4.67 | MMAD [2]: 3.09 μm | solubility thermodynamic at 24 h (physchem; pH 3, aqueous buffer): 170 µg/mL | solubility thermodynamic at 24 h (physchem; pH 4, aqueous buffer): 70 µg/mL | solubility thermodynamic at 24 h (physchem; pH 5, aqueous buffer): 50 µg/mL | solubility thermodynamic at 24 h (physchem; pH 6, aqueous buffer): 70 µg/mL | solubility thermodynamic at 24 h (physchem; pH 7, aqueous buffer): 100 µg/mL | solubility thermodynamic at 24 h (physchem; pH 8, aqueous buffer): 380 µg/mL | solubility thermodynamic at 24 h (physchem; pH 9, aqueous buffer): 2300 µg/mL | solubility thermodynamic at 24 h (physchem; pH 10, aqueous buffer): 7870 µg/mL | solubility thermodynamic at 24 h (physchem; pH 11, aqueous buffer): 14400 µg/mL

CC(C)[C@H](NC(=O)[C@@H](NC(=O)[C@H](Cc1ccccc1)NC(=O)[C@@H](NC(=O)[C@@H](NC(=O)[C@@H](N)Cc1ccccc1)[C@@H](C)O)[C@@H](C)O)[C@@H](C)O)C(=O)N[C@H](C(=O)O)[C@@H](C)O [CSP7, FTTFTVT] (H-FTTFTVT-OH; N-terminus and C-terminus assumed)
solubility thermodynamic at 3 min ([3]; pH 4.5): 150 µg/mL (≈ 184 µM) | solubility thermodynamic at 3 min ([3]; pH 5.5): 160 µg/mL (≈ 196 µM) | solubility thermodynamic at 3 min ([3]; pH 6.5): 160 µg/mL (≈ 196 µM) | solubility thermodynamic at 3 min ([3]; pH 7.5): 310 µg/mL (≈ 380 µM) | solubility thermodynamic at 3 min ([3]; pH 8.5): 1430 µg/mL (≈ 1750 µM) | Ashcroft score [4]: lower | Dv 50 [5]: 29.0±0.8 μm
